The values that follow come from patent US20040116336A1, “Peptide derivatives” (priority 2002, published 2004).

The target in experiment [1] is T1, APJ (Homo sapiens, UniProt P35414).
T1 construct: expressed in transfected cells; host or cells: CHO (CHO-A10; clone 6 for the cAMP assay)
T1 sequence (P35414 1-380): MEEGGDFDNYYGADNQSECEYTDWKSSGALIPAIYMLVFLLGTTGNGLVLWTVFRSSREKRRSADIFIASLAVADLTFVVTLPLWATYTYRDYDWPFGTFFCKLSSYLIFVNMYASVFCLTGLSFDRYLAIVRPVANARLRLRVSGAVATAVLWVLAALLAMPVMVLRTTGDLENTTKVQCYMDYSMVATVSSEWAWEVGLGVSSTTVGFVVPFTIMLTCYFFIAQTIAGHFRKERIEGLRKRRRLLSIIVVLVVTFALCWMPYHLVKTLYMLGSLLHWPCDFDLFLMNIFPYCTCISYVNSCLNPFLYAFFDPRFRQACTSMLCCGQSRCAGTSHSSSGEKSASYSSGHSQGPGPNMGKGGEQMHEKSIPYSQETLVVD
Put plainly: Inhibitory activity on forskolin-stimulated cAMP production in CHO-A10 clone 6 cells. In kind it is cell-based. Conditions: read-out: EC50. As for the experimental part:
Measurement of an Inhibitory Activity on Forskolin-Stimulated cAMP Production
Hanks' balanced salt solution (HBSS) containing 0.2 mM 3-isobutyl-1-methylxanthine (IBMX) and 0.05% bovine serum albumin was prepared as an assay buffer, and each well was washed twice with 500 μl assay buffer and pre-incubated at 37° C. for 30 minutes. Further, each well was washed once with 500 μl assay buffer, and a sample dissolved in the assay buffer containing 1 μM forskolin was added at a volume of 500 μl/well and incubated at 37° C. for 30 minutes. Wells incubated with the assay buffer not containing forskolin were prepared in the same manner in order to determine the basal level of cellular cAMP production, while wells incubated with the assay buffer containing forskolin were also prepared in order to determine the maximum level of cAMP production stimulated with forskolin. After incubation was finished, each well was washed once with 500 μl assay buffer, and 500 μl lysis buffer 1B attached to a cAMP EIA system from Amersham was added to each well, to extract cAMP. According to the protocol of the kit, 100 μl of each extract was used to determine the level of cAMP. For the inhibitory activity of the sample on cAMP production, the difference (inhibited cAMP production) between the maximum level and the level of cAMP in the sample-containing wells was determined, and the inhibitory activity was expressed as percentage relative to the increased level of cAMP production stimulated with forskolin (that is, the difference between the maximum level and basal level), and from this dose-reaction curve, the EC50 was determined.
On the technique in general: Changes in cAMP serve as a functional read-out for many G protein-coupled receptors.

The target of experiment [2] is T1, APJ. Put plainly: Receptor binding assay-2 (compound in Reference Example 2 used). The note with it: compound in Reference Example 2 used as ligand; read-out: IC50. As for the experimental part:
This product was mixed with an equal volume of an assay buffer (50 mM Tris-HCl/pH 7.5, 5 mM EDTA, 0.5 mM PMSF, 20 μg/ml leupeptin, 0.1 μg/ml pepstatin A, 4 μg/ml E-64 (Peptide Research Laboratory, Co.), 0.1% bovine serum albumin) and stored at −30° C. before use.
CHO-A10 cells were cultured, recovered with PBS containing 5 mM EDTA from a culture vessel, and suspended in the above-mentioned assay buffer not containing bovine serum albumin. The cells were homogenized 3 times at 12,000 rpm for 15 seconds by a Polytron homogenizer (manufactured by Kinematica Inc.) and then centrifuged (1000×g, 4° C., 10 minutes), and the supernatant was recovered. The precipitates were subjected again to the same procedure as above, and the respective supernatants were combined and centrifuged at 100,000×g, 4° C. for 1 hour, to recover precipitates (membrane fraction). The membrane fraction was suspended again in a small amount of the buffer, homogenized with a Teflon homogenizer and stored at −80° C. before use.
Binding assay was carried out under the following conditions. […] Measurement of non-specific binding was carried out using a well containing 1 μM unlabeled compound in place of the test sample. After the incubation was finished, a cell harvester (Packard) adapted to 96 wells and a filter unit (GF/C, Packard) were used for separation thereby capturing the membrane fraction on the filter. After the filter was sufficiently dried, Microcinti 0 (Packard) was added thereto, and using Top Count (Packard), the amount of the labeled material captured together with the membrane fraction on the filter was measured.

Non-standard residues stand in square brackets, D forms with d. Residues, ends and D or L forms follow the SMILES beside them. No end group written: not given here. Phe(4-Cl) = N[C@@H](Cc1ccc(Cl)cc1)C(=O)O; Lys(Me2) = CN(C)CCCC[C@H](N)C(=O)O

For the compound `CSCC[C@H](NC(=O)[C@@H]1CCCN1C(=O)CNC(=O)[C@H](CCCNC(=N)N)NC(=O)[C@H](C)NC(=O)[C@H](CO)NC(=O)[C@H](CC(C)C)NC(=O)[C@H](CCCNC(=N)N)NC(=O)[C@@H]1CCCN1C(=O)[C@H](CCCNC(=N)N)NC(=O)[C@H](CCC(N)=O)NC(=O)[C@H](CCCNC(=N)N)NC(=O)[C@@H](N)CCCNC(=N)N)C(=O)N1CCC[C@H]1C(=O)N[C@@H](Cc1ccccc1)C(=O)O` [Compound in Ex. 17], the concentration for a half-maximal effect (EC50) (in general, the concentration that produces a half-maximal response) on APJ [1] amounted to 0.39 nM. For the same compound, at APJ [2], the half-inhibitory concentration (IC50) – broadly, the concentration that gives 50% inhibition – amounted to 0.036 nM.

In the case of `CC(C)C[C@H](NC(=O)[C@H](CCCNC(=N)N)NC(=O)[C@@H]1CCCN1C(=O)[C@H](CCCNC(=N)N)NC(=O)[C@H](CCC(N)=O)NC(=O)[C@H](CCCNC(=N)N)NC(=O)[C@@H](N)CCCNC(=N)N)C(=O)N[C@@H](CO)C(=O)N[C@@H](C)C(=O)N[C@@H](CCCNC(=N)N)C(=O)NCC(=O)N1CCC[C@H]1C(=O)O` [Compound in Ex. 19], the concentration giving a half-maximal response (EC50) on APJ [1] is 0.26 nM. At APJ [2], the IC50 turned out to be 0.071 nM.

As to `CC(C)C[C@H](NC(=O)[C@H](CCCNC(=N)N)NC(=O)[C@@H]1CCCN1C(=O)[C@H](CCCNC(=N)N)NC(=O)[C@H](CCC(N)=O)NC(=O)[C@H](CCCNC(=N)N)NC(=O)[C@@H](N)CCCNC(=N)N)C(=O)N[C@@H](CO)C(=O)N[C@@H](Cc1c[nH]cn1)C(=O)N[C@@H](CCCCN)C(=O)NCC(=O)N1CCC[C@H]1C(=O)N[C@@H](CC[S+](C)[O-])C(=O)O` (stereo partly shown) [Compound in Ex. 20], on APJ [1], the EC50 is 0.48 nM. The IC50 on APJ [2] was found to be 0.62 nM.

`CSCC[C@H](NC(=O)[C@@H]1CCCN1C(=O)CNC(=O)[C@H](CCCCN)NC(=O)[C@H](Cc1c[nH]cn1)NC(=O)[C@H](CO)NC(=O)[C@H](CC(C)C)NC(=O)[C@H](CCCNC(=N)N)NC(=O)[C@@H]1CCCN1C(=O)[C@H](CCCNC(=N)N)NC(=O)[C@H](CCCNC(=N)N)NC(=O)[C@H](CCCNC(=N)N)NC(=O)[C@@H](N)CCCNC(=N)N)C(=O)N1CCC[C@H]1C(=O)N[C@@H](Cc1ccccc1)C(=O)O` [Compound in Ex. 22]: the concentration for a half-maximal effect (EC50) at APJ [1] stood at 0.32 nM. Besides, the IC50 on APJ [2] came out at 0.12 nM.

`CSCC[C@H](NC(=O)[C@@H]1CCCN1C(=O)CNC(=O)[C@H](CCCCN)NC(=O)[C@H](Cc1c[nH]cn1)NC(=O)[C@H](CO)NC(=O)[C@H](CC(C)C)NC(=O)[C@H](CCCNC(=N)N)NC(=O)[C@@H]1CCCN1C(=O)[C@@H](N)CCCNC(=N)N)C(=O)N[C@@H](Cc1ccc(Cl)cc1)C(=O)O` [Compound in Ex. 28] (H-RPRLSHKGPM[Phe(4-Cl)]-OH; N-terminus and C-terminus assumed): the EC50 at APJ [1] stood at 0.16 nM. In addition, at APJ [2], the half-inhibitory concentration (IC50) came to 0.17 nM.

`CSCC[C@H](NC(=O)[C@@H]1CCCN1C(=O)CNC(=O)[C@H](CCCCN)NC(=O)[C@H](C)NC(=O)[C@H](CO)NC(=O)[C@H](CC(C)C)NC(=O)[C@H](CCCNC(=N)N)NC(=O)[C@@H]1CCCN1C(=O)[C@H](CCCNC(=N)N)NC(=O)[C@@H]1CCC(=O)N1)C(=O)N1CCC[C@H]1C(=O)N[C@@H](Cc1ccccc1)C(=O)O` [Compound in Ex. 29]: the 50% effective concentration (EC50) on APJ [1] turned out to be 0.22 nM. Also, at APJ [2], the IC50 was 0.21 nM.

Regarding `CSCC[C@H](NC(=O)[C@@H]1CCCN1C(=O)CNC(=O)[C@H](CCCCN)NC(=O)[C@H](Cc1c[nH]cn1)NC(=O)[C@H](CO)NC(=O)[C@H](CC(C)C)NC(=O)[C@H](CCCNC(=N)N)NC(=O)[C@@H]1CCCN1C(=O)[C@@H](N)CCCNC(=N)N)C(=O)N1CCC[C@H]1C(=O)N[C@@H](Cc1ccc2ccccc2c1)C(=O)O` [Compound in Ex. 32], the EC50 on APJ [1] was determined as 0.1 nM. Moreover, the IC50 at APJ [2] was determined as 0.35 nM.

`CSCC[C@H](NC(=O)[C@@H]1CCCN1C(=O)CNC(=O)[C@H](CCCCN(C)C)NC(=O)[C@H](C)NC(=O)[C@H](CO)NC(=O)[C@H](CC(C)C)NC(=O)[C@H](CCCNC(=N)N)NC(=O)[C@@H]1CCCN1C(=O)[C@@H](N)CCCNC(=N)N)C(=O)N1CCC[C@H]1C(=O)N[C@@H](Cc1ccccc1)C(=O)O` [Compound in Ex. 64, Arg-Pro-Arg-Leu-Ser-Ala-Lys(Me)2-Gly-Pro-Met-Pro-Phe] (H-RPRLSA[Lys(Me2)]GPMPF-OH; N-terminus and C-terminus assumed): at APJ [1], the 50% effective concentration (EC50) turned out to be 0.38 nM.

As to RPRLSARGPM [Compound in Ex. 27], at APJ [2], the concentration for half-maximal inhibition (IC50) came out at 0.11 nM.
